Tested on: Aβ1-42 production
Assay: Cellular assay for inhibition of Aβ1-42 production (H4 APP751 SWE clone 8.20)
Assay type: cell-based
Details: 19 h, H4 APP751 SWE clone 8.20 cells, 19 h incubation; class symbols; read-out: Activity Rating (Aβ42 cellular IC50)
Outline: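 Aβ42 read by time-resolved FRET using neoepitope antibody 565 (0.8 ng/well) paired with N-terminal 26D6 (75 ng/well), incubated overnight at 4 °C, then IC50 curve fitting. Cells: H4 APP751 Swedish clone 8.20, exposed to compound for 19 h at 37 °C.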

IC50 [nM]	Structure (SMILES)
100 to 1000	CCN(C)c1nc(Nc2ccc(-n3cnc(Cl)c3)c(OC)c2)nc2c1CNCC2c1ccc(F)cc1 (centres unmarked) [Example 161, N2-(4-(4-chloro-1H-imidazol-1-yl)-3-methoxyphenyl)-N4-ethyl-8-(4-fluorophenyl)-N4-methyl-5,6,7,8-tetrahydropyrido[4,3-d]pyrimidine-2,4-diamine]
10 to 100	COc1cc(Nc2nc3c(c(N4CC(F)(F)C4)n2)CNCC3c2ccc(F)cc2)ccc1-n1cnc(Cl)c1 (centres unmarked) [Example 162, N-(4-(4-chloro-1H-imidazol-1-yl)-3-methoxyphenyl)-4-(3,3-difluoroazetidin-1-yl)-8-(4-fluorophenyl)-5,6,7,8-tetrahydropyrido[4,3-d]pyrimidin-2-amine]
1.5 to 9.9	CNc1nc(Nc2ccc(-n3cnc(Cl)c3)c(OC)c2)nc2c1CN(C)CC2c1ccc(F)cc1 (centres unmarked) [Example 163A, N2-(4-(4-chloro-1H-imidazol-1-yl)-3-methoxyphenyl)-8-(4-fluorophenyl)-N4,6-dimethyl-5,6,7,8-tetrahydropyrido[4,3-d]pyrimidine-2,4-diamine]
10 to 100	CCNc1nc(Nc2ccc(-n3cnc(Cl)c3)c(OC)c2)nc2c1CN(C)CC2c1ccc(F)cc1 (centres unmarked) [Example 164A, N2-(4-(4-chloro-1H-imidazol-1-yl)-3-methoxyphenyl)-N4-ethyl-8-(4-fluorophenyl)-6-methyl-5,6,7,8-tetrahydropyrido[4,3-d]pyrimidine-2,4-diamine]
10 to 100	CCN(C)c1nc(Nc2ccc(-n3cnc(Cl)c3)c(OC)c2)nc2c1CN(C)CC2c1ccc(F)cc1 (centres unmarked) [Example 165, N2-(4-(4-chloro-1H-imidazol-1-yl)-3-methoxyphenyl)-N4-ethyl-8-(4-fluorophenyl)-N4,6-dimethyl-5,6,7,8-tetrahydropyrido[4,3-d]pyrimidine-2,4-diamine]
100 to 1000	CCN(C)c1nc(Nc2ccc(-n3cnc(Cl)c3)c(OC)c2)nc2c1CCNC2c1ccc(F)cc1 (centres unmarked) [Example 166, N2-(4-(4-chloro-1H-imidazol-1-yl)-3-methoxyphenyl)-N4-ethyl-8-(4-fluorophenyl)-N4-methyl-5,6,7,8-tetrahydropyrido[3,4-d]pyrimidine-2,4-diamine]
1.5 to 9.9	CCNc1nc(Nc2ccc(-n3cnc(Cl)c3)c(OC)c2)nc2c1CCN(S(C)(=O)=O)C2c1ccc(F)cc1 (centres unmarked) [Example 168A, N2-(4-(4-chloro-1H-imidazol-1-yl)-3-methoxyphenyl)-N4-ethyl-8-(4-fluorophenyl)-7-(methylsulfonyl)-5,6,7,8-tetrahydropyrido[3,4-d]pyrimidine-2,4-diamine]
10 to 100	COc1cc(Nc2nc3c(c(N4CC[C@@H](F)C4)n2)CCN(S(C)(=O)=O)C3c2ccc(F)cc2)ccc1-n1cnc(Cl)c1 (some centres unmarked) [Example 174]
10 to 100	CCNc1nc(Nc2ccc(-n3cnc(Cl)c3)c(OC)c2)nc2c1CCN(C)C2c1ccc(F)cc1 (centres unmarked) [Example 175, N2-(4-(4-chloro-1H-imidazol-1-yl)-3-methoxyphenyl)-N4-ethyl-8-(4-fluorophenyl)-7-methyl-5,6,7,8-tetrahydropyrido[3,4-d]pyrimidine-2,4-diamine]
1.5 to 9.9	[2H]C([2H])([2H])Nc1nc(Nc2ccc(-n3cnc(Cl)c3)c(OC)c2)nc2c1CCC2c1ccccc1 (centres unmarked) [Example 176, N^2-(4-(4-Chloro-1H-imidazol-1-yl)-3-methoxyphenyl)-N^4-trideuteromethyl-7-phenyl-6,7-dihydro-5H-cyclopenta[d]pyrimidine-2,4-diamine]
10 to 100	CNc1nc(Nc2ccc(-n3cnc(Cl)c3)c(OC)c2)nc2c1C=CCC2(O)c1ccccc1 (centres unmarked) [Example 177, 2-(4-(4-chloro-1H-imidazol-1-yl)-3-methoxyphenylamino)-4-(methylamino)-8-phenyl-7,8-dihydroquinazolin-8-ol]
1.5 to 9.9	CNc1nc(Nc2ccc(-n3cnc(Cl)c3)c(OC)c2)nc2c1CCCC2(O)c1ccccc1 (centres unmarked) [Example 178, 2-(4-(4-chloro-1H-imidazol-1-yl)-3-methoxyphenylamino)-4-(methylamino)-8-phenyl-5,6,7,8-tetrahydroquinazolin-8-ol]
10 to 100	COc1cc(Nc2nc(N(C)C)c3c(n2)C(O)(c2ccccc2)CC3)ccc1-n1cnc(Cl)c1 (centres unmarked) [Example 179, 2-(4-(4-chloro-1H-imidazol-1-yl)-3-methoxyphenylamino)-4-(dimethylamino)-7-phenyl-6,7-dihydro-5H-cyclopenta[d]pyrimidin-7-ol]
10 to 100	COc1cc(Nc2nc3c(c(N(C)C)n2)C[C@H](O)[C@H]3c2ccccc2)ccc1-n1cnc(Cl)c1 [Example 180, (6S,7S)-2-(4-(4-chloro-1H-imidazol-1-yl)-3-methoxyphenylamino)-4-(dimethylamino)-7-phenyl-6,7-dihydro-5H-cyclopenta[d]pyrimidin-6-ol]

Same assay, conditions: 19 h, H4 APP751 SWE clone 8.20 cells, 19 h incubation; read-out: Activity Rating (Aβ42 cellular IC50), numeric value

IC50 [nM]	Structure (SMILES)
180	CCN(C)c1nc(Nc2ccc(-n3cnc(Cl)c3)c(OC)c2)nc2c1CN(C)CC2c1ccc(F)cc1 (centres unmarked) [Example 165B, N2-(4-(4-chloro-1H-imidazol-1-yl)-3-methoxyphenyl)-N4-ethyl-8-(4-fluorophenyl)-N4,6-dimethyl-5,6,7,8-tetrahydropyrido[4,3-d]pyrimidine-2,4-diamine]
26	COc1ccc(CN2CCc3c(nc(Nc4ccc(-n5cnc(Cl)c5)c(OC)c4)nc3N3CC[C@H](F)C3)C2c2ccc(F)cc2)cc1 (stereo partly drawn) [Example 167A, N-(4-(4-chloro-1H-imidazol-1-yl)-3-methoxyphenyl)-8-(4-fluorophenyl)-4-((S)-3-fluoropyrrolidin-1-yl)-7-(4-methoxybenzyl)-5,6,7,8-tetrahydropyrido[3,4-d]pyrimidin-2-amine]
16	CCNc1nc(Nc2ccc(-n3cnc(Cl)c3)c(OC)c2)nc2c1CCN(C(C)=O)C2c1ccc(F)cc1 (centres unmarked) [Example 171, 1-(2-(4-(4-chloro-1H-imidazol-1-yl)-3-methoxyphenylamino)-4-(ethylamino)-8-(4-fluorophenyl)-5,6-dihydropyrido[3,4-d]pyrimidin-7(8H)-yl)ethanone]
490	COc1cc(Nc2nc3c(c(N4CC[C@@H](F)C4)n2)CCN(S(C)(=O)=O)C3c2ccc(F)cc2)ccc1-n1cnc(Cl)c1 (some centres unmarked) [Example 173]
50	COc1cc(Nc2nc3c(c(N4CC(Cl)C4)n2)CCC3c2ccccc2)ccc1-n1cnc(Cl)c1 (centres unmarked) [Example 181B, N-(4-(4-chloro-1H-imidazol-1-yl)-3-methoxyphenyl)-4-(3-chloroazetidin-1-yl)-7-phenyl-6,7-dihydro-5H-cyclopenta[d]pyrimidin-2-amine]
11	COc1cc(Nc2nc3c(c(N4CC(OC)C4)n2)CCC3c2ccccc2)ccc1-n1cnc(Cl)c1 (centres unmarked) [Example 183, N-(4-(4-chloro-1H-imidazol-1-yl)-3-methoxyphenyl)-4-(3-methoxyazetidin-1-yl)-7-phenyl-6,7-dihydro-5H-cyclopenta[d]pyrimidin-2-amine]

Same assay, conditions: H4 APP751 SWE clone 8.20 cells, 19 h incubation; class symbols; read-out: Activity Rating (Aβ42 cellular IC50)

IC50 [nM]	Structure (SMILES)
10 to 100	CCNc1nc(Nc2ccc(-n3cnc(Cl)c3)c(OC)c2)nc2c1CCN(CC)C2c1ccc(F)cc1 (centres unmarked) [Example 169, N2-(4-(4-chloro-1H-imidazol-1-yl)-3-methoxyphenyl)-N4,7-diethyl-8-(4-fluorophenyl)-5,6,7,8-tetrahydropyrido[3,4-d]pyrimidine-2,4-diamine]
10 to 100	CCNc1nc(Nc2ccc(-n3cnc(Cl)c3)c(OC)c2)nc2c1CCN(C(=O)OC)C2c1ccc(F)cc1 (centres unmarked) [Example 170, methyl 2-(4-(4-chloro-1H-imidazol-1-yl)-3-methoxyphenylamino)-4-(ethylamino)-8-(4-fluorophenyl)-5,6-dihydropyrido[3,4-d]pyrimidine-7(8H)-carboxylate]
1.5 to 9.9	CCN(C)c1nc(Nc2ccc(-n3cnc(Cl)c3)c(OC)c2)nc2c1CCN(S(C)(=O)=O)C2c1ccc(F)cc1 (centres unmarked) [Example 172A, N2-(4-(4-chloro-1H-imidazol-1-yl)-3-methoxyphenyl)-N4-ethyl-8-(4-fluorophenyl)-N4-methyl-7-(methylsulfonyl)-5,6,7,8-tetrahydropyrido[3,4-d]pyrimidine-2,4-diamine]
100 to 1000	CCN(C)c1nc(Nc2ccc(-n3cnc(Cl)c3)c(OC)c2)nc2c1CCN(S(C)(=O)=O)C2c1ccc(F)cc1 (centres unmarked) [Example 172B, N2-(4-(4-chloro-1H-imidazol-1-yl)-3-methoxyphenyl)-N4-ethyl-8-(4-fluorophenyl)-N4-methyl-7-(methylsulfonyl)-5,6,7,8-tetrahydropyrido[3,4-d]pyrimidine-2,4-diamine]
10 to 100	COc1cc(Nc2nc3c(c(N4CC(Cl)C4)n2)CCC3c2ccccc2)ccc1-n1cnc(Cl)c1 (centres unmarked) [Example 181, N-(4-(4-chloro-1H-imidazol-1-yl)-3-methoxyphenyl)-4-(3-chloroazetidin-1-yl)-7-phenyl-6,7-dihydro-5H-cyclopenta[d]pyrimidin-2-amine]
1.5 to 9.9	COc1cc(Nc2nc3c(c(N4CC(Cl)C4)n2)CCC3c2ccccc2)ccc1-n1cnc(Cl)c1 (centres unmarked) [Example 181A, N-(4-(4-chloro-1H-imidazol-1-yl)-3-methoxyphenyl)-4-(3-chloroazetidin-1-yl)-7-phenyl-6,7-dihydro-5H-cyclopenta[d]pyrimidin-2-amine]
10 to 100	COc1cc(Nc2nc3c(c(N4CC(F)C4)n2)CCC3c2ccccc2)ccc1-n1cnc(Cl)c1 (centres unmarked) [Example 182, N-(4-(4-chloro-1H-imidazol-1-yl)-3-methoxyphenyl)-4-(3-fluoroazetidin-1-yl)-7-phenyl-6,7-dihydro-5H-cyclopenta[d]pyrimidin-2-amine]
1.5 to 9.9	COc1cc(Nc2nc3c(c(N4CC(F)C4)n2)CCC3c2ccccc2)ccc1-n1cnc(Cl)c1 (centres unmarked) [Example 182A, N-(4-(4-chloro-1H-imidazol-1-yl)-3-methoxyphenyl)-4-(3-fluoroazetidin-1-yl)-7-phenyl-6,7-dihydro-5H-cyclopenta[d]pyrimidin-2-amine]
10 to 100	COc1cc(Nc2nc3c(c(N4CC(F)C4)n2)CCC3c2ccccc2)ccc1-n1cnc(Cl)c1 (centres unmarked) [Example 182B, N-(4-(4-chloro-1H-imidazol-1-yl)-3-methoxyphenyl)-4-(3-fluoroazetidin-1-yl)-7-phenyl-6,7-dihydro-5H-cyclopenta[d]pyrimidin-2-amine]
